Test results published in patent US9775871B2, “Herbal compositions and methods for treating hepatic disorders” (priority 2007, dated 2017).

System: primary cultures of rat hepatocytes
Test: Production of free radicals (DCFH-DA fluorescence) after t-BOOH exposure

O=c1c(O)c(-c2ccc(O)c(O)c2)oc2cc(O)cc(O)c12 [Quercetin, quercetin]
Free radicals (%) (5 μM, Table 1, ratio of t-BOOH positive control, positive control of the test): 51.5 ± 2.1%
Free radicals (%) (25 μM, Table 1, ratio of t-BOOH positive control, positive control of the test): 18.8 ± 1.2%
Free radicals (%) (25 μM, Table 2, ratio of t-BOOH control (100), median ± SE): 13.2 ± 5.6 %
